Experiments:
[1] = Solution stability of the hydrochloride salt with solubilizer or thickener (days without precipitation); type: physicochemical; settings: 0.3% hydrochloride salt, aqueous phase, room temperature
Experimental: This experiment examined whether a solubilizer or thickener could maintain a stable solution (without solid precipitation due to self-aggregation) of the hydrochloride salt of the thienopyridine compound of Chemical Formula 1 in an aqueous phase at room temperature. Specifically, 0.3% of the hydrochloride salt was dissolved in a water-phase solution composed of water, PEG400, glycerol, propylene glycol, hexanediol, and polysorbate 60 (as per Table 3). It was heated at 80 °C with stirring for 10 minutes for complete dissolution, then cooled to room temperature. 1% (w/w) of urea or polyvinylpyrrolidone (PVP K-30) was tested as a solubilizer by being added to the solution.
Additionally, 2% (w/w) of xanthan gum, carboxymethyl cellulose, or PEG-240/HDI copolymer bis-decyltetradeceth-20 ether was tested as a thickener. Various combinations were also tested. The day on which precipitation first appeared was noted by visual or microscopic observation. The maximum days with no precipitation was recorded. […] Confirmatory mass spectrometry and ^1H-NMR indicated the precipitate was the compound of Chemical Formula 1.

[2] = Comparison of L-menthol with other known transdermal permeation enhancers (AUC∞ of the thienopyridine compound); type: in vivo; settings: AUC∞ after transdermal administration, component replaced with water, mice, FIG. 3
Experimental: Other reported transdermal permeation enhancers were tested to see how they affect the skin permeability of the thienopyridine compound.
Variants of the Example 1 formulation were created by removing one of the following and replacing it with water: propylene glycol, glycerol, or urea. Each variant was administered transdermally to mice (n=3) as in Experimental Example 2. Blood samples were analyzed to obtain plasma concentration-time profiles and the resulting average AUC∞±SD. These were compared by bar chart (FIG. 3) with the Example 1 formulation (with L-menthol) and Comparative Example 1 (without L-menthol). The asterisk (*) indicates p<0.01 (t-test).

[3] = Ju Yong Song 2016 thesis; cited from earlier work
[4] = Ju Yong Song 2016 thesis; cited from earlier work; remark: listed apart in the source
[5] = Sun X et al. 2012; cited from earlier work
[6] = test system: Src/DDR tyrosine kinase family; settings: see U.S. Pat. No. 9,062,066; cited from earlier work
[7] = ultraviolet light; Korean Patent No. 10-1478302; cited from earlier work
[8] = Fowler A J et al. 2019; US 2019-0262323; cited from earlier work
[9] = Transdermal potential: plasma pharmacokinetics via topical, intravenous and intradermal routes in rats; type: in vivo, SD rats; settings: 5 mpk; for AUC(0-inf) / AUC(0-t) at 24 h / Cmax / Tmax / half-life: rat, 5 mg/kg, male SD rats, phosphate salt form, plasma
Experimental: An experiment was conducted to evaluate the transdermal potential of the thienopyridine compound (API) using 7-week-old male SD rats. Specifically, the same 5 mpk dose of the thienopyridine compound was administered via three routes-transdermal (topical), intravenous (tail vein), and intradermal injections-simultaneously, following the compositions and methods shown in Table 1 (n=3 per group). The plasma concentration of the thienopyridine compound and pharmacokinetic parameters were then measured for each route.
In more detail, in each formulation the thienopyridine compound was used in phosphate salt form (compound:phosphoric acid=1:2.5 equivalents) at a concentration of 0.3 wt % in the carrier solution. For the transdermal formulation, the thienopyridine compound was first dissolved in a carrier solution lacking 3% […]™ EG, and then 3% […]™ EG (Seppic, France) was added with stirring for 3 minutes to impart viscosity. Blood samples were collected via the carotid artery at 0 (negative control sample), 0.03, 0.16, 0.25, 0.5, 1, 2, 4, 6, and 24 hours post-administration, placed into heparinized tubes, and centrifuged (3,000 rpm, 10 minutes). Plasma (13.5 μl) was stored at −20 °C until analyzed by LC-MS/MS within a week. Plasma concentrations of the thienopyridine compound were determined by LC-MS/MS. Each 13.5 μl plasma sample was mixed with 60 μl of acetonitrile containing 1 μg/mL of an internal standard, vortexed, and centrifuged at 6,000 rpm for 15 minutes; 50 μl of the supernatant was then mixed with 50 μl of distilled water for LC-MS/MS analysis. The LC-MS/MS system was an Agilent 1200 Series HPLC (Agilent, Santa Clara, CA) coupled with an AP13200® triple-quadrupole mass spectrometer (Applied Biosystems-SCIEX, Concord, Canada). The mobile phase was 0.1% formic acid in water (A) and acetonitrile (B). Chromatographic separation was achieved on a reverse-phase Atlantis™ T3 column (100×2.1 mm, 3 μm; Waters, Milford, MA) at a flow rate of 0.25 ml/min under a gradient. The LOQ was 9.7 ng/ml, and the correlation coefficient (R) for calibration was 0.997.
Pharmacokinetic parameters were determined by noncompartmental analysis using WinNonlin® (Pharsight, Mountain View, CA). The maximum plasma concentration (Cmax) was taken directly from the plasma concentration-time profile, and time to reach Cmax (Tmax) was recorded. The area under the concentration-time curve from time zero to the last time point (AUC0-24) was calculated by the trapezoidal rule […]. AUC∞ was calculated by summing AUC0-24 and AUC24-∞, the latter obtained by dividing the 24-hour plasma concentration by the terminal elimination rate.

[10] = topical or ocular, topical application

SMILES: Oc1cccc(Nc2ccnc3cc(-c4cccc(CN5CCOCC5)c4)sc23)c1
- maximum days with no precipitation ([1]; thickener 2% PEG-240/HDI copolymer bis-decyltetradeceth-20 ether, solubilizer 1% polyvinylpyrrolidone (k30)): >7 days
- maximum days with no precipitation ([1]; thickener 2% PEG-240/HDI copolymer bis-decyltetradeceth-20 ether, solubilizer 1% urea): 6 days
- maximum days with no precipitation ([1]; thickener 2% PEG-240/HDI copolymer bis-decyltetradeceth-20 ether, solubilizer none): 6 days
- maximum days with no precipitation ([1]; thickener 2% carboxymethyl cellulose, solubilizer 1% polyvinylpyrrolidone (k30)): 1 days
- maximum days with no precipitation ([1]; thickener 2% carboxymethyl cellulose, solubilizer 1% urea): 1 days
- maximum days with no precipitation ([1]; thickener 2% carboxymethyl cellulose, solubilizer none): 1 days
- maximum days with no precipitation ([1]; thickener 2% xanthan gum, solubilizer 1% polyvinylpyrrolidone (k30)): 1 days
- maximum days with no precipitation ([1]; thickener 2% xanthan gum, solubilizer 1% urea): 1 days
- maximum days with no precipitation ([1]; thickener 2% xanthan gum, solubilizer none): 1 days
- maximum days with no precipitation ([1]; thickener none, solubilizer 1% polyvinylpyrrolidone (k30)): 5 days
- maximum days with no precipitation ([1]; thickener none, solubilizer 1% urea): 1 days
- maximum days with no precipitation ([1]; thickener none, solubilizer none): 1 days

SMILES: OCC(O)CO [glycerol]
- effect on transdermal permeability of the thienopyridine compound [2]: virtually no effect

SMILES: CC1CCC(C(C)C)C(O)C1 (stereo not drawn) [menthol]
- effect on transdermal permeability of the thienopyridine compound [2]: uniquely strong enhancing effect

SMILES: CC(O)CO (stereo not drawn) [propylene glycol]
- effect on transdermal permeability of the thienopyridine compound [2]: virtually no effect

SMILES: Oc1cccc(Nc2ccnc3cc(-c4cccc(CN5CCOCC5)c4)sc23)c1 [thienopyridine compound, 3-[[2-[3-(4-morpholinylmethyl)phenyl]thieno[3,2-b]pyridin-7-yl]amino]phenol]
- suppression of histamine-induced pruritus [3]: suppresses histamine-induced pruritus
- suppression of SLIGRL-NH2-induced pruritus [4]: effectively suppresses
- anti-inflammatory and anti-scarring activities, repair of damaged skin tissue [5]: exhibits anti-inflammatory and anti-scarring activities and promotes the repair of damaged skin tissue
- inhibition of kinase activity [6]: strongly inhibits
- anti-aging activity, wrinkle formation [7]: suppresses wrinkle formation
- progression of degenerative brain diseases [8]: suppress the progression of degenerative brain diseases
- AUC(0-inf) ([9]; intradermal injection): 446 ± 160 ng·h/mL
- AUC(0-t) at 24 h ([9]; intradermal injection): 315 ± 197 ng·h/mL
- Cmax ([9]; intradermal injection): 40.3 ± 15.7 ng/mL
- Tmax ([9]; intradermal injection): 0.65 ± 0.335 h
- half-life ([9]; intradermal injection): 8.32 ± 3.15 h
- AUC(0-inf) ([9]; intravenous (iv)): 619 ± 219 ng·h/mL
- AUC(0-t) at 24 h ([9]; intravenous (iv)): 514 ± 222 ng·h/mL
- half-life ([9]; intravenous (iv)): 2.74 ± 1.81 h
- AUC(0-inf) [9, 10]: 49.4 ± 37.7 ng·h/mL
- AUC(0-t) at 24 h [9, 10]: 41.7 ± 8.84 ng·h/mL
- Cmax [9, 10]: 10.4 ± 13.5 ng/mL
- Tmax [9, 10]: 1.38 ± 1.75 h
- half-life [9, 10]: 5.46 ± 2.29 h
- transdermal absorption relative to intravenous or intradermal administration ([9]; topical vs intravenous or intradermal, rats): about one-tenth

SMILES: NC(N)=O [urea]
- effect on transdermal permeability of the thienopyridine compound [2]: virtually no effect

Source: patent US20260373155A1, “TRANSDERMALLY- OR TOPICALLY-ADMINISTERED COMPOSITION COMPRISING THIENOPYRIDINE COMPOUND” (GY LIFE SCIENCES CO., LTD., priority 2022, published 2026)
